Data reported in patent US12150925B2, “Buthionine sulfoximine and a metallodrug for the treatment of cancer, HIV or a rheumatic disease” (Istituto Superiore di Sanità, priority 2017, dated 2024).

Columns and labels:
activated CD4^+ T-cells = test: Viability of activated primary CD4+ T-cells (MTT assay, FIG. 1); assay type: cell-based
Method: FIG. 1 is a graph showing the viability of activated primary CD4^+ T-cells treated with different concentrations of auranofin and buthionine sulfoximine (BSO), measured with the MTT assay. The cells were pre-incubated with the drugs for 24 hours and then activated with phytohemagglutinin (PHA) and assayed for viability 72 hours post activation (A) or the cells were activated with αCD3-αCD28 beads and then treated for 48 h with different combinations of auranofin and BSO (B). In (A), the effects of chloroquine are shown as a matter of comparison with a drug adopted in the clinic to limit immune hyperactivation. All concentrations are expressed in μM. In-vitro activity on activated CD4^+ T-cells and leukemia/lymphoma Methods. Resting CD4^+ T-cells, cultured T-cell leukemic Jurkat cells and Sup-T1 cells were left untreated or incubated for 24-72 hours with various concentrations of auranofin and/or buthionine sulfoximine (BSO), or chloroquine (only CD4^+ T-cells) or cisplatin (only Jurkat and Supt-T1 cells) CD4^+ T-cells were then activated by adding phytohemagglutinin (2 μg/mL). Alternatively, CD4^+ T-cells were first activated with anti-CD3/anti-CD28 beads and, after 72 hours, were left untreated or were incubated with auranofin and/or buthionine sulfoximine (BSO), or chloroquine. Cell viability was determined 24-72 hours post-activation with an MTT assay (CellTiter 96@ Non-Radioactive Cell Proliferation Assay) or MTS assay (CellTiter 960 AQueous One Solution Cell Proliferation Assay System; Promega). For the assay, 300×10^5 cells were re-suspended in 100 μL of medium and transferred to a 96-well plate. Cells were then incubated with 20 μL of a substrate solution (One Solution Reagent) for 3-4 hours in a CO2 (5%) incubator at 37° C. For the MTT assay, 100 μL of a Solubilization/Stop Solution were used to stop the reaction. Medium-only containing wells were included to serve as a blank control. Absorbance levels were recorded at 490 nm (MTS) or 570 nm (MTT) and, after subtraction of the blank, absorbance values were expressed as percentage of controls. Results. The results from the new dosage combinations were compared to the untreated cells as well as the cells treated with single drugs or “classical” dosages, in a multiple comparison analysis. Thus, the statistical significances shown are also significant compared to the untreated cells.

HIV = test: Theoretical clinical example, HIV patient, with computational simulation of the viral reservoir; design: species or system human; conditions: auranofin 6 mg bid six months plus low-dose BSO (three one-week cycles, 0.08 g orally every 6 hours) with ART; baseline 22 copies/10^6 CD4^+ T-cells
From the text: A simulation of the viral load (RNA copies/ml) and viral reservoir (L cells) dynamics in a human model is provided. The trend of productively infected cells (T*) is also shown. The simulation is based on the five differential equations model in Rong and Perelson (2009). The peaks in the viral load correspond to the periods of activation of latently infected CD4+ T-cells. For starting data see Rong and Perelson (2009). Different proliferation rates (p) are shown (day^−1), corresponding to different drug treatments, or absence of any treatment. The bottom three panels depict a scenario without the drugs, with p=1.4 day^−1. The effects of BSO in combination with auranofin at plasma molar ratios (BSO/auranofin) of 1:0.25 (top three panels), 1:0.5 (second line of panels from top), 1:1 (third line of panels from top) are simulated. The plasma concentration of auranofin is […]. The activation function adopted to simulate lymphocyte encounter with antigens is illustrated in Rong and Perelson (2009).
The following is a theoretical example for a typical situation wherein the BSO is used at a reduced concentration, with a clinically-acceptable dosage of auranofin to treat a patient with an HIV diagnosis.
Patient received an HIV diagnosis in 2008. […]
The patient is subjected to quantification of viral DNA, the result of which is 22 copies/10^6 CD4^+ T-cells. […]

glutathione levels = conditions: Malaker et al. 1994; cited from earlier work
[1] = BSO 500 mg/kg intraperitoneally; cisplatin 6 or 9 mg/kg; cited from earlier work
SIVmac251 = conditions: auranofin 0.4 mg/kg/day and BSO 450 mg/kg in combination with ART; cited from earlier work
[2] = test system: murine mammary carcinoma cell line; conditions: auranofin/submicromolar BSO combination; cited from earlier work

CCCCS(=N)(=O)CCC(N)C(=O)O (stereo not drawn) [BSO, buthionine sulfoximine]
effect on viability compared with clinically achievable concentrations of Chloroquine (activated CD4^+ T-cells; BSO 2 μM with auranofin): superior | limitation of cell viability compared with classically-described BSO concentration (250 μM) (activated CD4^+ T-cells; BSO 2 μM with auranofin): similar | effect with auranofin in limiting the viability of activated CD4^+ T-cells (activated CD4^+ T-cells; BSO as low as 2 μM in combination with auranofin, pre-incubated (FIG. 1A) or treated concomitantly to activation (FIG. 1B)): synergistic effect | effects of BSO on viability at submicromolar concentrations (activated CD4^+ T-cells; with auranofin, cells activated with αCD3-αCD28 beads, then treated 48 h (FIG. 1B)): still present | viral reservoir after treatment (HIV): < 10 copies of viral DNA/million cells | BSO concentration required to achieve a 90% decrease in glutathione levels (glutathione levels): 6 µM | effect of BSO pre-treatment on antitumor effects of cisplatin [1]: enhanced | disease outcome following suspension of all therapies (SIVmac251): functional cure | directly cytotoxic/anticancer effect [2]: not able to detect
